The test system of assay [1] is C2C12 Cells. The experiment in a line: Glucose utilization in cultured C2C12 cells (myotubes). It is filed as cell-based, mouse. Conditions: glucose concentration in medium relative to untreated cells; 5 μM peptide, 22 h. On the procedure: The effect of the peptides on glucose homeostasis can be assessed using an assay to monitor glucose utilization by cultured cells such as mouse myotubes. Peptide arrays were initially prepared as 5 mM stock in DMSO and diluted to 0.5 mM in H2O; peptides were used at a final concentration of 5 μM (0.1% DMSO). Calculations for peptide concentrations based on approximate molecular weight of 2000 Daltons. C2C12 mouse muscle cell line was purchased from Millipore Sigma (Saint Louis, Mo.). C2C12 cells were seeded in standard medium (DMEM/low glucose (1 g/L)+10% Fetal Bovine Serum+antibiotics) at 7,500 cells/well on 96-well plates and grown to confluence at 37° C. in a humidified atmosphere of 5% CO2/95% air. Three days after plating the medium was removed and with Differentiation Medium (DMEM/low glucose (1 g/L)+2% Horse Serum+antibiotics) added. The cultures were placed at 37° C. in a humidified atmosphere of 5% CO2/95% air for 5 days with partially replacement of medium daily. After 5 days of differentiation, the medium was removed from myotube cultures and replaced with Assay Medium (DMEM/low glucose (1 g/L)+antibiotics). Culture were placed at 37° C. in a humidified atmosphere of 5% CO2/95% air for 5 h. Following the 5 h incubation the medium was removed and fresh Assay Medium containing compounds was added; 5 μM peptide or 1 mM metformin as a potent stimulator of glucose utilization. Cells were incubated for 22 h at 37° C. in a humidified atmosphere of 5% CO2/95% air. Following 22 h incubation, conditioned medium from each well was transferred to a fresh 96-well plate. Glucose concentrations in the medium were determined using a Glucose Assay kit (Abcam; Cambridge, Mass.) according to the manufacturer's instructions; absorbance measured using a Cytation 3 plate reader at 570 nm (BioTek, Winooski, Vt.). Untreated cells were used as reference for basal glucose utilization. Absorbance values were expressed as percent control activity relative to untreated treated cells for 5 μM peptide. The relative standard deviation from plate to plate of untreated control was <10%. […] Data presented are representative values from 2-3 independent experiments with each data point performed in triplicate in each independent experiment.

For assay [2], the system named is 3T3-L1 Mouse Adipocytes. The experiment in a line: Free fatty acid levels in cultured 3T3-L1 mouse adipocytes (isoproterenol stimulated). It is filed as cell-based. The following applies: free fatty acid in medium; 5 μM peptide, 20-22 h pre-incubation then 3 h with 0.1 nM isoproterenol; isoproterenol alone = 100%. As for the experimental part: The effect of the peptides on fatty acid metabolism can be assessed using an assay to monitor free fatty acid levels produced by cultured cells such as mouse adipocytes. Peptide arrays were initially prepared as 5 mM stock in DMSO and diluted to 0.5 mM in H2O; peptides were used at a final concentration of 5 μM (0.1% DMSO). Calculations for peptide concentrations based on approximate molecular weight of 2000 Daltons. […] Mouse 3T3-L1 cells purchased from ZenBio (Research Triangle Park, NC) were seeded at 3,000 cells per well in 96-well plates in Pre-adipocyte Medium (Zen-Bio) and grown to confluence at 37° C. in a humidified atmosphere of 5% CO2/95% air. Two days after confluence, cells were placed in Adipocyte Differentiation Medium (Zen-Bio) and cultured for three additional days at 37° C. in a humidified atmosphere of 5% CO2/95% air. The culture medium was then replaced with Adipocyte Maintenance Medium (Zen-Bio) and the cells maintained for an additional 9 days at 37° C. in a humidified atmosphere of 5% CO2/95% air with partial medium replacement every other day. Following 12 days of differentiation, medium was replaced Adipocyte Maintenance Medium without insulin and the cultures placed at 37° C. in a humidified atmosphere of 5% CO2/95% air. On day 13 of differentiation, test peptides were added directly to each well (without replacing the medium) at a final concentration of 5 μM in 0.1% DMSO and incubated for 20-22 hours at 37° C. in a humidified atmosphere of 5% CO2/95% air. […] Cells were incubated for 3 hours in Assay Buffer (Zen-Bio) at 37° C. in a humidified atmosphere of 5% CO2/95% air. Following 3 h incubation, conditioned medium from each well was transferred to a fresh 96-well plate. Free fatty acid concentrations in the medium were determined using a Free Fatty Acid Assay kit (Zen-Bio) according to the manufacturer's instructions; absorbance was measured using a Cytation 3 plate reader at 540 nm (BioTek, Winooski, Vt.). Treatment with 0.1 nM isoproterenol alone was used as the free fatty acid level stimulatory control. Absorbance values were expressed as percent control activity relative to 0.1 nM isoproterenol alone treated cells, 100%. The relative standard deviation of the isoproterenol control was <10%. Insulin at 0.25 nM was used as a potent control for decreasing free fatty acid levels. […] Data presented are representative values from 2 independent experiments with each data point performed in triplicate in each independent experiment.

The test system of assay [3] is H4-IIE Cells. The experiment in a line: Glucose production in cultured H4-IIE cells. The assay is classed as cell-based, rat. The following applies: glucose concentration in medium relative to untreated cells; 5 μM peptide, 24 h. On the procedure: The effect of the peptides on glucose homeostasis can be assessed using an assay to monitor glucose production by cultured cells such as rat hepatocytes. Peptide arrays were initially prepared as 5 mM stock in DMSO and diluted to 0.5 mM in H2O; peptides were used at a final concentration of 5 μM (0.1% DMSO). Calculations for peptide concentrations based on approximate molecular weight of 2000 Daltons. H4-IIE rat hepatic cell line was purchased from American Type Culture Collection (Manassas, Va.). H4-IIE cells were seeded in standard medium (DMEM/high glucose+10% Fetal Bovine Serum+antibiotics) at 100,000 cells/well on 96-well plates and allowed to adhere overnight at 37° C. in a humidified atmosphere of 5% CO2/95% air. 24 h after seeding, the medium was removed, cells were rinsed with glucose free DMEM, and the medium replaced with Glucose Production Medium (glucose free DMEM+2 mM sodium pyruvate+10 mM sodium lactate+antibiotics). The cultures were placed at 37° C. in a humidified atmosphere of 5% CO2/95% air overnight. The next morning, the medium was removed and fresh Glucose Production Medium containing compounds was added; 5 uM peptide or 0.5-1 nM insulin as a potent inhibitor of glucose production. Cells were incubated for 24 h at 37° C. in a humidified atmosphere of 5% CO2/95% air. Following 24 h incubation, conditioned medium from each well was transferred to a fresh 96-well plate. Glucose concentrations in the medium were determined using a Glucose Assay kit (Abcam; Cambridge, Mass.) according to the manufacturer's instructions; absorbance measured using a Cytation 3 plate reader at 570 nm (BioTek, Winooski, Vt.). Untreated cells were used as reference for maximal glucose production. Absorbance values were expressed as percent control activity relative to untreated treated cells for 5 μM peptide. The relative standard deviation from plate to plate of untreated control was <25%. […] Glucose levels for 0.5-1 nM insulin treatment were <5% of the untreated control value. Data are presented as representative values from 2-3 independent experiments with each data point performed in triplicate in each independent experiment.

Turning to 51 (MIEMGASFCHV) [compound 51], the “Percent of Control Activity” value in assay [1] is given as 103%; in assay [3], 111%. In assay [2], the “Percent of Isoproterenol Control Activity” value came to 89%.

Turning to 52 (MITVPAHKGMAMA) [compound 52], the entries for the “Percent of Control Activity” value in assay [1] and in assay [3] were 104% and 107%, respectively. Also, the “Percent of Isoproterenol Control Activity” value in assay [2] is reported as 92%.

Regarding “53 (MIYVSSDVGDWWKGGWGVWWVVHG) [compound 53]”, the “Percent of Control Activity” value in assay [1] is 101%; in assay [3], 115%. For the same substance, the “Percent of Isoproterenol Control Activity” value in assay [2] amounted to 91%.

Take 54 (MKFEIWLGWC) [compound 54]: the “Percent of Control Activity” value stood at 103% in assay [1] and 113% in assay [3]. Further, the “Percent of Isoproterenol Control Activity” value in assay [2] came out at 104%.

Regarding 55 (MKHRQVLWVLSCGS) [compound 55], the results for the “Percent of Control Activity” value in assay [1] and in assay [3] were 103% and 118%, respectively. In addition, the “Percent of Isoproterenol Control Activity” value in assay [2] was 98%.

For 56 (MKNHRCISTT) [compound 56], the results for the “Percent of Control Activity” value in assay [1] and in assay [3] were 104% and 112%, respectively. In addition, in assay [2], the “Percent of Isoproterenol Control Activity” value was 89%.

As for “57 (MKPFTVHSTLQSNPFSSPWMTPL) [compound 57]”, the figures for the “Percent of Control Activity” value in assay [1] and in assay [3] were 107% and 112%, respectively. Also, the “Percent of Isoproterenol Control Activity” value in assay [2] worked out at 102%.

Regarding 58 (MKPMSPMRLY) [compound 58], the figures for the “Percent of Control Activity” value in assay [1] and in assay [3] were 101% and 112%, respectively. In addition, in assay [2], the “Percent of Isoproterenol Control Activity” value turned out to be 105%.

For “59 (MKSPSTLTTQSKTPSAYFSSFSP) [compound 59]”, the “Percent of Control Activity” value in assay [1] and in assay [3] was 108% in each case. Also, the “Percent of Isoproterenol Control Activity” value in assay [2] amounted to 100%.

As for 60 (MLEIVMGMETYHMSNA) [compound 60], the “Percent of Control Activity” value in assay [1] came out at 101%; in assay [3], 105%. Also, the “Percent of Isoproterenol Control Activity” value in assay [2] turned out to be 94%.

Consider 61 (MLFMRGNAMSGAPII) [compound 61], for which the “Percent of Control Activity” value amounted to 104% in assay [1] and 107% in assay [3]. For the same substance, the “Percent of Isoproterenol Control Activity” value in assay [2] amounted to 86%.

Take 62 (MLGVVGWCRL) [compound 62]: the “Percent of Control Activity” value in assay [1] is 91%; in assay [3], 106%. Further, the “Percent of Isoproterenol Control Activity” value in assay [2] is listed as 94%.

65 (MLKPETSSDSPSA) [compound 65]: the “Percent of Control Activity” value in assay [1] came out at 99%; in assay [3], 102%. In addition, in assay [2], the “Percent of Isoproterenol Control Activity” value was determined as 99%.

With 66 (MLLGWRFQLGAWVGGLQ) [compound 66], the “Percent of Control Activity” value in assay [1] and in assay [3] was 101% in each case. Besides, the “Percent of Isoproterenol Control Activity” value in assay [2] stood at 104%.

67 (MLLMWWVSEPHCVVVNM) [compound 67]: the figures for the “Percent of Control Activity” value in assay [1] and in assay [3] were 88% and 107%, respectively. The “Percent of Isoproterenol Control Activity” value in assay [2] is 116%.

Turning to 68 (MLLNSHRCSMSKDNHHSP) [compound 68], the “Percent of Control Activity” value was 99% in assay [1] and 105% in assay [3]. In addition, the “Percent of Isoproterenol Control Activity” value in assay [2] is given as 99%.

On to 69 (MLMVEWWLGWLHM) [compound 69], for which the “Percent of Control Activity” value was found to be 107% in assay [1] and 111% in assay [3]. In assay [2], the “Percent of Isoproterenol Control Activity” value was determined as 104%.

For 70 (MLNWSNNLTNGTSYP) [compound 70], the “Percent of Control Activity” value in assay [1] was determined as 118%; in assay [3], 105%. Moreover, the “Percent of Isoproterenol Control Activity” value in assay [2] was 110%.

On to 71 (MLPLHIYHNTMGLTHPPH) [compound 71], for which the “Percent of Control Activity” value worked out at 105% in assay [1] and 107% in assay [3]. The “Percent of Isoproterenol Control Activity” value in assay [2] turned out to be 89%.

72 (MLQGQAHLSILFSI) [compound 72]: the figures for the “Percent of Control Activity” value in assay [1] and in assay [3] were 97% and 107%, respectively. Besides, the “Percent of Isoproterenol Control Activity” value in assay [2] was found to be 96%.

With 73 (MLRSMLWNLWSKPQFHAHRP) [compound 73], the “Percent of Control Activity” value in assay [1] and in assay [3] was 111% throughout. In addition, the “Percent of Isoproterenol Control Activity” value in assay [2] amounted to 98%.

With “75 (MLTPGLVNFVPATAVTRLTQVN) [compound 75]”, the results for the “Percent of Control Activity” value in assay [1] and in assay [3] were 100% and 112%, respectively. For the same substance, the “Percent of Isoproterenol Control Activity” value in assay [2] is 79%.

Regarding 78 (MMAHLGKKPVSGG) [compound 78], the “Percent of Control Activity” value in assay [1] is on record as 106%; in assay [3], 114%. Further, in assay [2], the “Percent of Isoproterenol Control Activity” value is 96%.

Turning to 79 (MMCLRFRWCGLWS) [compound 79], the “Percent of Control Activity” value in assay [1] was determined as 94%; in assay [3] it was 116%. In assay [2], the “Percent of Isoproterenol Control Activity” value is reported as 90%.

In the case of 80 (MMDPEHMNSMALKKAWVQMC) [compound 80], the entries for the “Percent of Control Activity” value in assay [1] and in assay [3] were 99% and 111%, respectively. Further, the “Percent of Isoproterenol Control Activity” value in assay [2] is on record as 87%.

As for 81 (MMFPIRLHNSPIRP) [compound 81], the “Percent of Control Activity” value in assay [1] came to 118%; in assay [3] it was 115%. For the same substance, the “Percent of Isoproterenol Control Activity” value in assay [2] worked out at 90%.
